In paper PMC5041077, “Metabolic profile and safety of piperlongumine” (Scientific Reports, 2016):

Tests used:
[1] = tested on: human liver microsomes; test: In vitro kinetic study of PPL metabolism (substrate depletion) in human liver microsomes; assay type: in vitro ADME
Protocol: The in vitro kinetic study was performed setting the incubation conditions through the maintenance of initial velocity (V0); 0.45 mg/mL microsomal protein and 16 min time incubation were selected and the substrate concentration was ranged from 0.38 to 283.6 μM. The substrate depletion was quantified employing an analytical validated method (Tables S1, S2 and S3 and Fig. S1-Supplementary Information).
The metabolism was evaluated by measuring the rate of disappearance of the PPL peak. The incubations were performed in triplicate using 10 mL amber tubes. The metabolism medium consisted of substrate, a NADPH regeneration system solution A (1.3 mM NADP^+ and 3.3 mM glucose-6-phosphate), a NADPH regeneration system solution B (0.4 U/mL glucose-6-phosphate dehydrogenase), HLM and a potassium phosphate buffer pH 7.4 (100 mM) in a total volume of 200 μL. This microsomal medium was incubated in a shaking water bath at 37 °C. After pre-warming for 5 min at 37 °C to favor the formation of NADPH from the solutions A and B, the reaction was initiated by the addition of the HLM. To determine the enzymatic kinetic parameters, the linear conditions for microsomal protein concentration and for incubation time were optimized. The microsomal protein concentration was evaluated from 0.1 to 1.5 mg of protein per mL (n = 3), and the incubation time was varied from 0 to 40 min (n = 3). The linear range was obtained from these parameters and used to perform the substrate variation concentration at V0 conditions. The reactions were stopped by the addition of 200 μL of cold acetonitrile, gently agitated for 20 s and then centrifuged for 5 min at 2860x g. Finally, aliquots of the supernatant were removed and injected into the chromatographic system. Control incubations were performed in the absence of the cofactor solution and in the absence of the HLM. The difference between ‘with’ and ‘without’ NADPH was attributed to CYP450-mediated metabolism.
(§1) The kinetic parameters were calculated from nonlinear regression using GraphPad Prism Version 3.03 (San Diego, CA, USA). The Intrinsic Clearance (CLint) was obtained considering the Hill coefficient. The Unbounded Intrinsic Clearance (CLuint), Predicted in vivo Clearance (CL) and Hepatic Clearance (CLH) were determined according to Subramarian and Tracy[15] and Austin et al.[17]. Hepatic extraction ratio was calculated according to Kashuba et al.[21]. Dose-dependent inhibition parameters were determined employing SigmaPlot version 12.0 (Chicago, IL, USA). The Lineweaver-Burk plot was used to determine the inhibition profile. The second plot of slopes from Lineweaver-Burk plot versus PPL concentrations was utilized to calculate the Ki. The parameters kinact and KI in time-dependent inhibition were calculated employing GraphPad Prism Version 3.03.

[2] = Piperlongumine plasma protein binding (ultrafiltration); assay type: in vitro ADME
Protocol: Piperlongumine-protein binding. An in vitro study with a microsomal and plasma protein was carried out using a concentration of PPL approximately corresponding to its S50 (n = 3). The plasma protein binding was evaluated to predict the in vivo clearance, using a plasma protein concentration of 42 mg/mL. The samples were incubated with pooled human liver microsomes at 37 °C as described in section above. The same V0 conditions obtained (protein concentration and incubation time) were applied in this study, but in the absence of the cofactor NADPH. Furthermore, a control sample without protein was analyzed simultaneously for comparison purposes. These mixtures were added to the centrifugal filter device (Microcon YM-30, 30,000 molecular weight cut-off; Millipore Corporation, Bedford, MA, USA) and centrifuged at 21800 x g for 30 min at 37 °C (Hitachi CF16RXII, Himac, Tokyo, Japan). The ultra-filtrate was directly assayed by high-performance liquid chromatography at the conditions previously described.

[3] = Predicted in vivo parameters (in vitro-in vivo scaling); assay type: in vitro ADME, human
Protocol: In vitro-in vivo scaling has been proposed by some authors. […] PPL microsome and plasma bindings were 23% and 93%, respectively. The predicted parameters, Intrinsic Clearance (CLint), Unbounded Intrinsic Clearance (CLuint), Predicted in vivo Clearance (CL), Hepatic Clearance (CLH) and Hepatic Extraction Ratio (E), are expressed in Table 1.
as §1

[4] = tested on: recombinant human CYP (rhCYP) isoforms; test: P450 reaction phenotyping by rhCYP isoforms; assay type: in vitro ADME; details: specific inhibitors in pooled HLM and recombinant CYP450 isoforms
Protocol: The capacity of selected major human P450 isoforms to metabolize PPL was screened using human recombinant isoenzymes. Briefly, PPL (S50 concentration) was added into a 200 μL incubation mixture containing P450 isoform (50 pmol/mL for CYP3A4, CYP1A2, CYP2C9, 2B6, 2D6 and 2C19; 25 pmol/mL for CYP2C8 and […]; final concentrations), NADPH regeneration system solution A (1.3 mM NADP^+ and 3.3 mM glucose-6-phosphate), NADPH regeneration system solution B (0.4 U/mL glucose-6-phosphate dehydrogenase), potassium phosphate buffer pH 7.4 (100 mM), except for CYP2C9 where the phosphate buffer was substituted by tris buffer pH 7.5 (100 mM), maintaining for 50 min in shaking water bath. In order to enhance the sensibility one sample was pooled from 4 single reactions. PPL metabolites were analyzed by a GC-MS as described previously. The MS peak areas of PPL metabolites were recorded to determine the contributions of the P450 enzymes.
Phenotyping study at 50 min. In order to evaluate the CYP isoforms involved in M4 formation, a similar study as described in the main text was performed, except by the time of incubation of 50 min (Fig. S13).

[5] = biological target: T1, CYP1A2 (Homo sapiens, UniProt P05177); test: Mechanism-based (time-dependent) inhibition of CYP1A2 by piperlongumine; assay type: in vitro ADME; design: kinact: dose or concentration left out as unconfirmed; details: human liver microsomes, pH 7.4, probe phenacetin […] µM
Protocol: Reactions were terminated as described above.
as §1

[6] = biological target: T1, CYP1A2; test: NADPH-dependent inhibition study; assay type: in vitro ADME; details: PPL at 1/2 IC50, pre-incubation 0 and 30 min
Protocol: NADPH-dependent Inhibition. The mechanism-based inhibition is characterized by dose-, NADPH- and time-dependent cytochrome P450 oxidoreductase, so the NADPH dependence study was performed. […] NADPH regeneration system was added and the mixture was pre-incubated for 0 and 30 min. […] The mixture was incubated by 30 min and the reaction stopped as described previously. Controls without PPL were performed.

[7] = biological target: T1, CYP1A2; test: IC50 assay, phenacetin O-deethylation in HLM
[8] = biological target: CYP2C9 (Homo sapiens, UniProt P11712); test: IC50 assay, diclofenac 4'-hydroxylation in HLM
CYP2C9, sequence (P11712 whole entry): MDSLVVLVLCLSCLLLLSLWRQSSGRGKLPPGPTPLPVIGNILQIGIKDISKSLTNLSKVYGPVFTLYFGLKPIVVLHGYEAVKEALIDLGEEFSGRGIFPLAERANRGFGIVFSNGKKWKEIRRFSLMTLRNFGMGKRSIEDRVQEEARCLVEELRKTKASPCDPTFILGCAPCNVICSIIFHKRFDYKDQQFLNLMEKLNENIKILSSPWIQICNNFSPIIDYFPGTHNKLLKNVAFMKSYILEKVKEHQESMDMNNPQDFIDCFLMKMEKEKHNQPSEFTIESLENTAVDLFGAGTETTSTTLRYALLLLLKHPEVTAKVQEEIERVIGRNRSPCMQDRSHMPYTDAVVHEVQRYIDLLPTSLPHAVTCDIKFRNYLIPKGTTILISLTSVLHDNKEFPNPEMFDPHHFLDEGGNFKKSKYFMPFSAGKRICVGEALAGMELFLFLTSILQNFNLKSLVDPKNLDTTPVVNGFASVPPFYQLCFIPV

T1 sequence (P05177 whole entry): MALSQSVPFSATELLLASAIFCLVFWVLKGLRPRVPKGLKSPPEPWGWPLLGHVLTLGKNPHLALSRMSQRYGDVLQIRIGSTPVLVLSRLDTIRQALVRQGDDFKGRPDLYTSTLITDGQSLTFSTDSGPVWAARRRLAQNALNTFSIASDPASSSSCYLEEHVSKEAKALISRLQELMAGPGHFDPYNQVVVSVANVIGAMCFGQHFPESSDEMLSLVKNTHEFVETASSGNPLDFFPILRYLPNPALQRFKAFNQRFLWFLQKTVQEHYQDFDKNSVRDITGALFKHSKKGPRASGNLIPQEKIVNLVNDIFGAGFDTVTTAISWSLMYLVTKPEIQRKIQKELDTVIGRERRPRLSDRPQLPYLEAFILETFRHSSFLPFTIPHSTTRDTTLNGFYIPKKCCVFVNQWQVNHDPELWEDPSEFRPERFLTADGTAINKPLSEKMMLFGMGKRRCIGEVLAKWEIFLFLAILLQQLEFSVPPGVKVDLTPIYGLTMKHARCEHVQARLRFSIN

SMILES: COc1cc(/C=C/C(=O)N2CCC=CC2=O)cc(OC)c1OC [PPL, Piperlongumine]
- Hill coefficient ([1]; HLM 0.45 mg/mL, 16 min): 3.0
- S50 ([1]; HLM 0.45 mg/mL, 16 min, sigmoidal profile): 127.7 µM
- Vmax ([1]; HLM 0.45 mg/mL, 16 min, substrate 0.38 to 283.6 μM, sigmoidal profile): 5.5 ± 0.5 nmol/mg protein/min
- S50 in human relative to the value observed in rats ([1]; human vs rat liver microsomes, rat value ref 19): 2.7 times
- plasma binding ([2]; PPL approx. S50, plasma protein 42 mg/mL): 93%
- fraction unbound at 16 min, 127.7 μM ([2]; plasma protein (42 mg/mL), PPL 127.70 μM, read-out: fuplasma (free fraction of the compound in plasma)): 0.07
- Hepatic Extraction (E) [3]: 0.09
- Predicted in Vivo Clearance (CL) ([3]; 40 mg microsomes/g liver, 20 g liver/kg body weight): 19.79 mL/min/kg
- Unbounded Intrinsic Clearance (CLuint) ([3]; corrected for fumic): 29.84 µL/min/mg
- Intrinsic Clearance (CLint) ([3]; from HLM kinetic data considering the Hill coefficient): 22.68 µL/min/mg
- Hepatic Clearance (CLH) ([3]; liver blood flow 20 mL/min/kg): 1.89 mL/min/kg
- main CYP isoenzymes involved in PPL metabolism [4]: CYP1A2 and CYP3A4
- kinact [5]: 0.000233 s⁻¹
- KI (inactivation) ([5]; read-out: KI (inactivation parameter)): 8 µM
- NADPH dependence of CYP oxidative inhibition [6]: NADPH-dependent
- IC50 [7]: 7.2 µM
- IC50 [8]: > 100 µM
